In ChEMBL document CHEMBL5335856, “Structurally Diverse Alkaloids with Anti-Renal-Fibrosis Activity from the Centipede Scolopendra subspinipes mutilans” (J Nat Prod, 2024):
Calls of active or inactive are those of the source. The calls are words filed in the database; no cut-off is given here.

Experiments:
[1] = target: V-type proton ATPase subunit C 1 (Homo sapiens) (UniProt P21283); assay: Binding affinity to Atp6v1c1 (unknown origin) assessed as fold change in protein upregulation at 200 uM preincubated for 2 hrs followed by pronase addition and measured after 30 mins by coomassie blue staining based SDS-PAGE gel analysis
[2] = target: Protein farnesyltransferase/geranylgeranyltransferase type-1 subunit alpha (Homo sapiens) (UniProt P49354); assay: Binding affinity to FNTA (unknown origin) assessed as fold change in protein upregulation at 200 uM preincubated for 2 hrs followed by pronase addition and measured after 30 mins by coomassie blue staining based SDS-PAGE gel analysis
NRK-52E [3] = assay: Anti-renal-fibrosis activity in TGF-beta1 induced rat NRK-52E cells assessed as downregulation of collagen I protein level by Western blot analysis; type: functional, cell-based; conditions: dose 5-40 µM
NRK-52E [4] = assay: Anti-renal-fibrosis activity in TGF-beta1 induced rat NRK-52E cells assessed as downregulation of fibronectin protein level at 20 uM by Western blot analysis; type: functional, cell-based

Chain of V-type proton ATPase subunit C 1 (Homo sapiens) (P21283 whole entry): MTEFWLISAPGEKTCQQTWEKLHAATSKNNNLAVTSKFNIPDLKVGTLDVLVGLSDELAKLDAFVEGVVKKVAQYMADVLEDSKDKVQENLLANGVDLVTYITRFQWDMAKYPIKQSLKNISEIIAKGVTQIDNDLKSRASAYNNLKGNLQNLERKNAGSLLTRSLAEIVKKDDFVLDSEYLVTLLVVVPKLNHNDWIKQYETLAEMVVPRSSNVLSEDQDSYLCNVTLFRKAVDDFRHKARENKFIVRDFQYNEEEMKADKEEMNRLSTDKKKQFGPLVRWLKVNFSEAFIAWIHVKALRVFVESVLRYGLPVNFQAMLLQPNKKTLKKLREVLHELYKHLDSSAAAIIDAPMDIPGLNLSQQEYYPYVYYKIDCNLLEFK

fold change (FC) [1]: 1.21
fold change (FC) [2]: 1.26
SMILES: COc1c(O)nc2c(O)cccc2c1OC
Activity (NRK-52E [3]): Dose-Dependent Effect
Activity (NRK-52E [4]): Active
